In the assay the test system is Phytophthora infestans Genotype 13_A2. Format: cell-based. The following applies: 0.5%, 1% and 2% (all concentrations) in CMA with 0.5% DMSO; 7 days and 14 days post inoculation; 23 °C.

In the case of `CC1(C)C2CCC1(C)C(O)C2O` (racemic) [(+/−)-exo,exo-2,3-Camphanediol], the “average mycelial extension into amended CMA agar (growth)” value is “heavily reduced or absent altogether”.

Regarding `C=CCc1ccc(O)c(OC)c1` [Eugenol, eugenol], the “average mycelial extension into amended CMA agar (growth)” value was “heavily reduced or absent altogether”.

The values above are taken from patent publication US20210007351A1 (priority 2018, published 2021).
